# Columns and labels:
# [1] = biological target: T1, Dimer of Gag-Pol polyprotein [489-587] (Human immunodeficiency virus 1, UniProt P12497); assay: Protease Inhibition Assay
# T1 construct: 489-587
# Experimental: (§1) Sensitivity of HIV-1 protease activity to protease inhibitors was determined by a peptide substrate cleavage assay. Protease products were analyzed on a reverse-phase high-pressure liquid chromatograph.
# [2] = biological target: T2, Gag-Pol polyprotein [489-587] (Human immunodeficiency virus 1, UniProt P04585); assay: Protease Inhibition Assay
# T2 construct: 489-587
# Experimental: as §1
# [3] = biological target: T2, Gag-Pol polyprotein [489-587]
SMILES,"IC50 ([1]; pH 6.2, 37 °C)","Ki ([1]; pH 6.2, 37 °C)",IC50 [2],Ki [3],Ki [1]
"Cc1cc(SC2C(=O)CC(CCc3ccc(O)cc3)(C(C)C)OC2=O)c(C(C)(C)C)cc1NS(=O)(=O)c1ccccc1 (stereo not given) [N-[5-tert-butyl-4-({4-hydroxy-6-[2-(4-hydroxyphenyl)ethyl]-2-oxo-6-(propan-2-yl)-5,6-dihydro-2H-pyran-3-yl}sulfanyl)-2-methylphenyl]benzenesulfonamide]",1.8 nM,0.53 nM,1.8 nM,0.53 nM,–
Cc1cc(SC2C(=O)C[C@@](CCc3ccc(O)cc3)(C(C)C)OC2=O)c(C(C)(C)C)cc1OS(C)(=O)=O (stereo not given in full),–,–,2.2 nM,0.03 nM,0.03 nM
"Cc1cc(SC2C(=O)C[C@@](CCc3ccccc3)(C(C)C)OC2=O)c(C(C)(C)C)cc1NS(=O)(=O)c1ccc(C#N)cc1 (stereo partly drawn) [N-(5-tert-butyl-4-{[(6S)-4-hydroxy-2-oxo-6-(2-phenylethyl)-6-(propan-2-yl)-5,6-dihydro-2H-pyran-3-yl]sulfanyl}-2-methylphenyl)-4-cyanobenzene-1-sulfonamide]",–,–,9.1 nM,0.2 nM,0.2 nM

# Source: BindingDB's records for doi:10.1021/jm990281p (Parke-Davis Pharmaceutical Research, 2000)
